Test results from US5932717A, “Methods of obtaining DNA-RNA hybrids from sturgeon milt” (priority 1994, dated 1999).

How the values were obtained:
MT-4 cell = conditions: MT-4, 5 ug/ml
Experimental: (§1) The cells.--A continuous lymphoblast line of MT-4 cells was used in the study. The cells were propagated in a concentration of 0.2×10^6 cells/ml in RPMI-1640 medium with 15% fetal calf serum, 300 μg/ml L-glutamine and 100 μg/ml gentamycine. The cells were cultivated in suspension in 24-well plates of NUNCLON Company.
(§2) The viability of the cells was determined by staining with 0.4% trypan blue.
(§3) Cytotoxicity of the preparations was determined in 24-well plastic plates. Each well of the panel was filled with 1 ml of cell suspension in a concentration 0.2×10^6 cells/ml after which to different wells various doses of chemopreparations were added: 1600, 1000, and 400 μg/ml. After treatment of the cells with the chemopreparations the panels with the cells were placed into a thermostat and incubated at 37° C. in an atmosphere of 5% CO2 and 98% humidity for 3-5 days. At the end of this term the results were read by the number of live and dead cells in the individual wells of the plate.

in vitro = conditions: human, mt-4 cells
Experimental: as §1, §2, §3

With `Cc1cn([C@H]2C[C@H](N=[N+]=[N-])[C@@H](CO)O2)c(=O)[nH]c1=O` [Azidothymidine, azidothymidine] the “Cell concentration per ml × 10^6” value (MT-4 cell; cell control 0.56) was 0.16 per ml × 10^6, the Proliferation index (MT-4 cell; cell control 2.80) was 1.0 and the viability (in vitro) was 17.5%.
